Paper PMC9516332 (Frontiers in Oncology, 2022)
Where two headings read alike, the source gives them in different places.

Test system: 134 cancer cell lines
Experiment: Cell viability assay (ATPlite, 72 hours), IC50 on cancer cell line panel

IC50 (Homo sapiens, MKN-45, read-out: IC50 in cell proliferation assay, MKN45 cell line (MET amplification)): 17.1 µM
IC50 (Homo sapiens, MOLM-13, read-out: IC50 in cell proliferation assay, MOLM-13 cell line (FLT3 ITD)): 14.3 µM
IC50 (Homo sapiens, MOLT-4, read-out: IC50 in cell proliferation assay, MOLT-4 cell line): 20.3 µM
IC50 (Homo sapiens, MV4-11, read-out: IC50 in cell proliferation assay, MV4-11 cell line (FLT3 ITD)): 19.1 µM
IC50 (Homo sapiens, MeWo, read-out: IC50 in cell proliferation assay, MeWo cell line): > 31.6 µM
IC50 (Homo sapiens, NCCIT, read-out: IC50 in cell proliferation assay, NCC-IT cell line): > 31.6 µM
IC50 (Homo sapiens, NCI-H82, read-out: IC50 in cell proliferation assay, cell line NCI-H82): 20.4 µM
IC50 (Homo sapiens, NCI-H460, read-out: IC50 in cell proliferation assay, NCI-H460 cell line): 30.4 µM
IC50 (Homo sapiens, NCI-H661, read-out: IC50 in cell proliferation assay, NCI-H661 cell line): 26.9 µM
IC50 (Homo sapiens, NCI-H716, read-out: IC50 in cell proliferation assay, cell line NCI-H716 (FGFR2-COL14A1)): 29.5 µM
IC50 (Homo sapiens, NCI-H1650, read-out: IC50 in cell proliferation assay, NCI-H1650 cell line (EGFR exon19del)): > 31.6 µM
IC50 (Homo sapiens, NCI-H1975, read-out: IC50 in cell proliferation assay, NCI-H1975 cell line (EGFR p.L858R + p.T790M)): 24.5 µM
IC50 (Homo sapiens, NCI-H2228, read-out: IC50 in cell proliferation assay, NCI-H2228 cell line (EML4-ALK)): > 31.6 µM
IC50 (Homo sapiens, OVCAR-3, read-out: IC50 in cell proliferation assay, cell line OVCAR-3): > 31.6 µM
IC50 (Homo sapiens, PFSK-1, read-out: IC50 in cell proliferation assay, cell line PFSK-1): 19 µM
IC50 (Homo sapiens, RL95-2, read-out: IC50 in cell proliferation assay, cell line RL95-2 (EGFR p.A289V)): 1.76 µM
IC50 (Homo sapiens, RPMI-7951, read-out: IC50 in cell proliferation assay, cell line RPMI-7951 (BRAF p.V600E)): 15.8 µM
IC50 (Homo sapiens, RS4-11, read-out: IC50 in cell proliferation assay, cell line RS4;11): 24.4 µM
IC50 (Homo sapiens, Rec1, read-out: IC50 in cell proliferation assay, cell line REC-1): 12 µM
IC50 (Homo sapiens, SHP77, read-out: IC50 in cell proliferation assay, cell line SHP-77): 22.8 µM
IC50 (Homo sapiens, SK-BR-3, read-out: IC50 in cell proliferation assay, cell line SK-BR-3 (ERBB2 amplification)): 0.022 µM
IC50 (Homo sapiens, SK-N-AS, read-out: IC50 in cell proliferation assay, cell line SK-N-AS): 25.2 µM
IC50 (Homo sapiens, SK-N-FI, read-out: IC50 in cell proliferation assay, cell line SK-N-FI): > 31.6 µM
IC50 (Homo sapiens, SK-N-MC, read-out: IC50 in cell proliferation assay, cell line SK-N-MC): 15.1 µM
IC50 (Homo sapiens, SK-N-SH, read-out: IC50 in cell proliferation assay, cell line SK-N-SH (ALK p.F1174L)): 24.9 µM
IC50 (Homo sapiens, SNU-5, read-out: IC50 in cell proliferation assay, cell line SNU-5 (MET amplification)): 24.6 µM
IC50 (Homo sapiens, SNU-16, read-out: IC50 in cell proliferation assay, cell line SNU-16 (FGFR2 amplification)): 20.5 µM
IC50 (Homo sapiens, SNU-C2B, read-out: IC50 in cell proliferation assay, cell line SNU-C2B (EGFR p.R165Q)): > 31.6 µM
IC50 (Homo sapiens, SU-DHL-1, read-out: IC50 in cell proliferation assay, cell line SU-DHL-1 (NPM1-ALK)): 15.7 µM
IC50 (Homo sapiens, SU-DHL-6, read-out: IC50 in cell proliferation assay, cell line SU-DHL-6): 15.3 µM
IC50 (Homo sapiens, SUP-T1, read-out: IC50 in cell proliferation assay, cell line SUP-T1): > 31.6 µM
IC50 (Homo sapiens, SW48, read-out: IC50 in cell proliferation assay, cell line SW48 (EGFR p.G719S)): 17.4 µM
IC50 (Homo sapiens, SW480, read-out: IC50 in cell proliferation assay, cell line SW480): > 31.6 µM
IC50 (Homo sapiens, SW626, read-out: IC50 in cell proliferation assay, cell line SW626): 23.5 µM
IC50 (Homo sapiens, SW780, read-out: IC50 in cell proliferation assay, cell line SW780 (FGFR3-BAIAP2L1)): 22.7 µM
IC50 (Homo sapiens, SW837, read-out: IC50 in cell proliferation assay, cell line SW837): > 31.6 µM
IC50 (Homo sapiens, SW872, read-out: IC50 in cell proliferation assay, cell line SW872 (BRAF p.V600E)): 31.4 µM
IC50 (Homo sapiens, SW900, read-out: IC50 in cell proliferation assay, cell line SW900): > 31.6 µM
IC50 (Homo sapiens, SW948, read-out: IC50 in cell proliferation assay, cell line SW948): > 31.6 µM
IC50 (Homo sapiens, SW982, read-out: IC50 in cell proliferation assay, cell line SW982 (BRAF p.V600E)): > 31.6 µM
IC50 (Homo sapiens, SW-620, read-out: IC50 in cell proliferation assay, cell line SW620): > 31.6 µM
IC50 (Homo sapiens, T98G, read-out: IC50 in cell proliferation assay, cell line T98G): 30.1 µM
IC50 (Homo sapiens, TCC-SUP, read-out: IC50 in cell proliferation assay, cell line TCCSUP): 30.4 µM
IC50 (Homo sapiens, THP-1, read-out: IC50 in cell proliferation assay, cell line THP-1): > 31.6 µM
IC50 (Homo sapiens, U2OS, read-out: IC50 in cell proliferation assay, cell line U2OS): 22.1 µM
IC50 (Homo sapiens, U-87 MG, read-out: IC50 in cell proliferation assay, cell line U-87MG ATCC): > 31.6 µM
IC50 (Homo sapiens, U-118-MG, read-out: IC50 in cell proliferation assay, cell line U-118MG): 25 µM
IC50 (Homo sapiens, UMUC3, read-out: IC50 in cell proliferation assay, cell line UM-UC-3): 8.4 µM
IC50 (Hs766T, read-out: IC50 in cell proliferation assay, Hs 766T cell line): > 31.6 µM
IC50 (L-82, read-out: IC50 in cell proliferation assay, L-82 cell line (NPM1-ALK)): > 31.6 µM
IC50 (Rh30, read-out: IC50 in cell proliferation assay, cell line Rh30): 25.8 µM
IC50 (read-out: IC50 in cell proliferation assay, 11-18 cell line (EGFR p.L858R)): 0.825 µM
IC50 (read-out: IC50 in cell proliferation assay, Hs 852.T cell line): > 31.6 µM
IC50 (read-out: IC50 in cell proliferation assay, JAR cell line): 24.1 µM
IC50 (read-out: IC50 in cell proliferation assay, cell line 5637): 8.88 µM
IC50 (read-out: IC50 in cell proliferation assay, cell line A-388): 15.9 µM
IC50 (read-out: IC50 in cell proliferation assay, cell line DB): 19.2 µM
IC50 (read-out: IC50 in cell proliferation assay, cell line DEL (NPM1-ALK)): > 31.6 µM
IC50 (read-out: IC50 in cell proliferation assay, cell line ES-2 (BRAF p.V600E)): 18.4 µM
IC50 (read-out: IC50 in cell proliferation assay, cell line PA-1): 21.1 µM
IC50 (read-out: IC50 in cell proliferation assay, cell line PC-3): 26.8 µM
IC50 (read-out: IC50 in cell proliferation assay, cell line RD): 28.8 µM
IC50 (read-out: IC50 in cell proliferation assay, cell line RKO (BRAF p.V600E)): 13.1 µM
IC50 (read-out: IC50 in cell proliferation assay, cell line RL): 24 µM
IC50 (read-out: IC50 in cell proliferation assay, cell line RT-4 (FGFR3-TACC3)): 9.99 µM
IC50 (read-out: IC50 in cell proliferation assay, cell line SR (NPM1-ALK)): 16.8 µM
IC50 (read-out: IC50 in cell proliferation assay, cell line T24): 20.1 µM
IC50 (read-out: IC50 in cell proliferation assay, cell line TT (RET p.C634W)): > 31.6 µM
IC50 (read-out: IC50 in cell proliferation assay, cell line VA-ES-BJ): 25.9 µM
Structure (SMILES): Cc1cc(Nc2ncnc3ccc(NC4=NC(C)(C)CO4)cc23)ccc1Oc1ccn2ncnc2c1 [tucatinib]
